Laboratory results published in US8269017B2, “Compounds for the treatment of proliferative disorders” (Synta Pharmaceuticals Corporation, priority 2005, dated 2012).
Counter-ions that a name gives are not always drawn. Like-named read-outs stand apart in the source and are kept apart here.

Key:
SB cells = assay: Induction of apoptosis in SB cells (Annexin V/PI, FACS); type: cell-based; conditions: 24 h; for % Apoptotic Cells Gated: 1 μM; for cytotoxicity at 1 µM: read-out: % Dead Cells Gated; for viability at 1 µM: read-out: % Live Cells Gated
Protocol: SB cells (2×10^5 cells/mL) were cultured in 12-well plates (2 mL/well) and were left untreated (negative control), treated with Taxol (positive control), or treated with a compound of the invention for 24 h at 37° C. After treatment, the cells were washed one time with 1×PBS and stained with FITC labeled anti-Annexin V and PI (10 μg/ml) for 15 min at room temperature. The cells were analyzed by FACSCalibur (Becton Dickinson).

MDA-435 = assay: Cytotoxicity in MDA-435 tumor cells (Cell Counting Kit 8); type: cell-based; conditions: Homo sapiens, MDA435, MDA-435 cells, 70 h
Protocol: Tumor cell line, MDA-435, was seeded in 96-well plates at 1×10^4 cells/well in DMEM medium and treated with compounds at different concentrations. Taxol was used as a positive control. The cells were incubated at 37° C. for 70 h. Viability of the cells was measured with Cell Counting Kit 8 (Dojindo, Cat #CK04). IC50 of the compounds was determined by Five-Parameter Logistic equation.

MES-SA (uterine sarcoma) = assay: In vitro cytotoxicity, MTS assay, MES-SA; type: cell-based, human; conditions: MES-SA (Uterine Carcinoma)
Protocol: (§1) The in vitro cytotoxicity of the compounds of the invention was determined in the following human cell lines: HL-60 (T-cell leukemia), MDA-435 and MCF-7 (human breast carcinoma), NCI-H460 and H29 (colon carcinoma), DU145 (prostate carcinoma), and MES-SA and MES-SA/DX5 (uterine sarcoma). MES-SA is a model of uterine sarcoma, and the cell are sensitive to a number of chemotherapeutic agents including doxorubicin, dactinomycin, mitomycin C, taxol and bleomycin, but resistant to vinblastine and cisplatin. MES-SA/Dx5 was established in the presence of increasing concentrations of doxorubicin. […] All cells were purchased from ATCC.
(§2) The cell lines were maintained in RPMI1640 (GIBCO) supplemented with 10% FCS, 100 units/mL penicillin, 100 ug/ml streptomycin, and 2 mM L-glutamine. Cells were split every third day and diluted to a concentration of 2×10^5 cells/mL one day before the experiment was performed. All experiments were performed on exponentially growing cell cultures. Cell densities were 2.5×10^4 cells/mL in all experiments.
(§3) Compounds of the invention were prepared by dissolving the compound at a concentration of 10 mM in 100% DMSO. Final concentrations 10, 1, 0.1, 0.01 and 0.001 μM were obtained by diluting the stock solution directly into the tissue culture medium.

HL-60 (T-cell leukemia) = assay: In vitro cytotoxicity, MTS assay, HL-60; type: cell-based, human
Protocol: as §1, §2, §3

[1] = system: MES-SA/DX5 (uterine sarcoma, MDR-1); assay: cells; type: cell-based; conditions: MES/DX5 (MDR-1), MTS assay
Protocol: as §1, §2, §3

[2] = system: microtubules of CV-1 cells; assay: Microtubule disruption in CV-1 cells resistant to colchicine and vincristine; type: cell-based, Africa green monkey; conditions: 500 nM
Description: The effects of compounds of the invention on microtubules were studied in CV-1 cells. The microtubules of CV-1 cells are known to be resistant to the depolymerizing effects of colchicine and vincristine. […] Cells were then fixed and stained to examine microtubule structure.

MDA-435 cells = assay: Cell cycle analysis in MDA-435 cells; type: cell-based, human; conditions: 20 h, Taxol 30 nM, Comp. 1 100 nM, Comp. 2 500 nM, Comp. 3 10 nM, Comp. 6 800 mM (so in the source), Comp. 46 50 nM
Protocol: MDA-435 cells were cultured in 6-well plates at 1×10^6 cells/well and were untreated (negative control), treated with Taxol (positive control), or treated with a compound of the invention at 37° C. for 20 h. The cells were detached with 1× trypsin and washed one time with PBS. Cycle TEST PLUS kit (BD PharMingen, Cat #340242) was used to stain the cells. Cell cycle was analyzed with FACScomp program (BS PharMingen).

[3] = Homo sapiens, 72 hours, read-out: IC50
[4] = Homo sapiens, HL-60, HL60 (Leukemia), 72 hours, read-out: IC50
[5] = Homo sapiens, HL-60, 72 h, HL60 (Leukemia)

SMILES | % Apoptotic Cells Gated (SB cells) [%] | cytotoxicity at 1 µM (SB cells) [%] | viability at 1 µM (SB cells) [%] | IC50 (MDA-435) [nM] | IC50 ([1]; Homo sapiens, MDR1, 72 h) [nM] | other results
COc1cc(-c2cnoc2-c2ccc(Br)cc2)cc(OC)c1OC [Compound 168, 4-(3,4,5-Trimethoxy-phenyl)-5-(4-bromo-phenyl)-isoxazole] | 15.49 | 14.4 | 60.4 | > 1000 |  | 
COc1ccc(-c2cnoc2-c2cc(OC)c(OC)c(OC)c2)cc1NC(=O)C(N)CCSC (stereo not drawn) [Compound 172, 2-amino-N-(2-methoxy-5-(5-(3,4,5-trimethoxyphenyl)isoxazol-4-yl)phenyl)-4-(methylthio)butanamide Hydrochloride] |  |  |  |  | 0.1 | IC50 (MES-SA (uterine sarcoma); [3]): 0.1 nM; IC50 (HL-60 (T-cell leukemia); [4]): 5 nM
COc1ccc(-c2cnoc2-c2cc(OC)c(OC)c(OC)c2)cc1NC(=O)C(C)N (stereo not drawn) [Compound 204, 2-amino-N-(2-methoxy-5-(5-(3,4,5-trimethoxyphenyl)isoxazol-4-yl)phenyl)propanamide Hydrochloride] |  |  |  |  |  | IC50 (MES-SA (uterine sarcoma); 72 hours, Hydrochloride): 106 nM; IC50 (HL-60 (T-cell leukemia); HL60 (Leukemia), 72 hours, Hydrochloride): 500 nM; IC50 ([1]; 72 hours, Hydrochloride): 120 nM
COc1ccc(-c2cnoc2-c2cc(OC)c(OC)c(OC)c2)cc1NC(=O)C(C)N (stereo not drawn) [Compound 171, 2-amino-N-(2-methoxy-5-[5-(3,4,5-trimethoxy-phenyl)-isoxazol-4-yl)-phenyl)propanamide] |  |  |  |  |  | IC50 (MES-SA (uterine sarcoma); 72 hours): 2 nM; IC50 (HL-60 (T-cell leukemia); HL60 (Leukemia), 72 hours): 5 nM; IC50 ([1]; 72 hours): 4 nM
COc1cc2c(c(OC)c1OC)-c1ccc(OC)c(=O)cc1[C@@H](NC(C)=O)CC2 [colchicine] |  |  |  |  |  | microtubule structure ([2]; 24 hr): disorganized but clear microtubule structures were found; microtubule structure ([2]; 48 hr): microtubule structures were still found
COC(=O)CNCC(=O)Nc1cc(-c2cnoc2-c2cc(OC)c(OC)c(OC)c2)ccc1OC [Compound 241, methyl 2-(2-(2-methoxy-5-(5-(3,4,5-trimethoxyphenyl)isoxazol-4-yl)phenylamino)-2-oxoethylamino)acetate] |  |  |  |  | 63 | IC50 (MES-SA (uterine sarcoma); [3]): 136 nM; IC50 (HL-60 (T-cell leukemia); [4]): 600 nM
COc1ccc(-c2cnoc2-c2cc(OC)c(OC)c(OC)c2)cc1NC(=O)CCN [Compound 243, 3-amino-N-(2-methoxy-5-(5-(3,4,5-trimethoxyphenyl)isoxazol-4-yl)phenyl)propanamide Hydrochloride] |  |  |  |  | 38 | IC50 (MES-SA (uterine sarcoma); Homo sapiens, MES-SA, 72 h): 50 nM; IC50 (HL-60 (T-cell leukemia); [5]): 63 nM
CCc1cc(-c2oncc2-c2ccc(OC)cc2)c(O)cc1OC [Compound 44, 4-(4-Methoxy-phenyl)-5-(2-hydroxy-4-methoxy-5-ethyl-phenyl)-isoxazole] | 16.05 | 12.3 | 64.8 | 200 |  | 
CC[C@]1(O)C[C@H]2CN(CCc3c([nH]c4ccccc34)[C@@](C(=O)OC)(c3cc4c(cc3OC)N(C=O)[C@H]3[C@@](O)(C(=O)OC)[C@H](OC(C)=O)[C@]5(CC)C=CCN6CC[C@]43[C@@H]65)C2)C1 [vincristine, Vincristine] |  |  |  |  |  | microtubule structure ([2]; 24 hr): disorganized but clear microtubule structures were found; microtubule structure ([2]; 48 hr): microtubule structures were still found
COc1ccc(-c2cnoc2-c2cc(OC)c(OC)c(OC)c2)cc1NC(=O)C(N)CC(C)C (stereo not drawn) [Compound 175, 2-amino-N-(2-methoxy-5-(5-(3,4,5-trimethoxyphenyl)isoxazol-4-yl)phenyl)-4-methylpentanamide Hydrochloride] |  |  |  |  | 0.1 | IC50 (MES-SA (uterine sarcoma); [3]): 0.1 nM; IC50 (HL-60 (T-cell leukemia); [4]): 5 nM
COc1cc(-c2oncc2-c2ccc(C(C)C)cc2)cc(OC)c1OC [Compound 45, 4-(4-Isopropyl-phenyl)-5-(3,4,5-trimethoxy-phenyl)-isoxazole] | 17.74 | 15.4 | 62 | 219 |  | 
CCc1cc(-c2oncc2-c2ccc3ccccc3c2)c(O)cc1OC [Compound 2, 4-(Naphthalen-2-yl)-5-(2-hydroxy-4-methoxy-5-ethyl-phenyl)-isoxazole] | 22.73 | 22.7 | 45.7 | 79 |  | Apoptotic Population (%) (MDA-435 cells): 11.17%; G0/G1 Phase (%) (MDA-435 cells): 21.25%; G2/M Phase (%) (MDA-435 cells): 30.53%; S Phase (%) (MDA-435 cells): 37.67%
COc1ccc(-c2cnoc2-c2cc(OC)c(OC)c(OC)c2)cc1OP(=O)(O)O [Compound 177, 2-methoxy-5-[5-(3,4,5-trimethoxy-phenyl)-isoxazol-4-yl)-phenyl dihydrogen phosphate] |  |  |  |  | 4 | IC50 (MES-SA (uterine sarcoma); Homo sapiens, MES-SA, 72 h): 8 nM; IC50 (HL-60 (T-cell leukemia); HL60 (Leukemia), 72 hours): 52 nM
CCc1ccc(-c2cnoc2-c2cc(OC)c(OC)c(OC)c2)cc1 [Compound 47, 4-(4-Ethyl-phenyl)-5-(3,4,5-trimethoxy-phenyl)-isoxazole] | 13.83 | 14.8 | 61.9 | 47 |  | 
COc1ccc(-c2cnoc2-c2cc(OC)c(OC)c(OC)c2)cc1NC(=O)C(N)CO (stereo not drawn) [Compound 170, 2-amino-3-hydroxy-N-(2-methoxy-5-[5-(3,4,5-trimethoxy-phenyl)-isoxazol-4-yl)-phenyl)propanamide hydrochloride] |  |  |  |  | 3 | IC50 (MES-SA (uterine sarcoma); [3]): 9 nM; IC50 (HL-60 (T-cell leukemia); [4]): 2 nM
COc1ccc(CC(N)C(=O)Nc2cc(-c3cnoc3-c3cc(OC)c(OC)c(OC)c3)ccc2OC)cc1 (stereo not drawn) [Compound 176, 2-amino-N-(2-methoxy-5-(5-(3,4,5-trimethoxyphenyl)isoxazol-4-yl)phenyl)-3-(4-methoxyphenyl)propanamide] |  |  |  |  | 0.1 | IC50 (MES-SA (uterine sarcoma); Homo sapiens, MES-SA, 72 h): 0.1 nM; IC50 (HL-60 (T-cell leukemia); [5]): 64 nM
COc1ccc(-c2oncc2-c2ccc3c(c2)OCCO3)cc1OC [Compound 161, 4-(2,3-Dihydro-benzo[1,4]dioxin-6-yl)-5-(3,4-dimethoxy-phenyl)isoxazole] | 14.61 | 10.5 | 66.8 | 591 |  | 
CCC(N)C(=O)Nc1cc(-c2cnoc2-c2cc(OC)c(OC)c(OC)c2)ccc1OC (stereo not drawn) [Compound 173, 2-amino-N-(2-methoxy-5-(5-(3,4,5-trimethoxyphenyl)isoxazol-4-yl)phenyl)butanamide Hydrochloride] |  |  |  |  | 0.1 | IC50 (MES-SA (uterine sarcoma); [3]): 0.1 nM; IC50 (HL-60 (T-cell leukemia); [4]): 2 nM
CCc1cc(-c2oncc2-c2ccc(C)c(C)c2)c(O)cc1OC [Compound 162, 4-(3,4-Dimethy-phenyl)-5-(2-hydroxy-4-methoxy-5-ethyl-phenyl)-isoxazole] | 17.74 | 11.5 | 64.6 | 842 |  | 
